From US6737383B1, “Herbicidal oxadiazolidines” (priority 1999, dated 2004)

Legend:
galium = test: Test E galium; assay type: in vivo, Galium aparine; details: Preemergence
sugar beet = test: Test E sugar beet; assay type: in vivo, Beta vulgaris; details: Postemergence
Procedure, shortened: (§1)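 Greenhouse-grown plants are treated (postemergence: 1- to 4-leaf stage, sandy loam/potting mix 60:40), then evaluated visually versus untreated controls some 21 to 28 days later.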

wild buckwheat = test: Test E wild buckwheat; assay type: in vivo, Polygonum convolvulus; details: Postemergence
Procedure, shortened: as §1

deadnettle = test: Test E deadnettle; assay type: in vivo, Lamium amplexicaule; details: Preemergence
cotton = test: Test C postemergence cotton; assay type: in vivo, Gossypium hirsutum; details: 0 to 100 scale, 0 no effect, 100 complete control
Experimental: (§2) Compounds evaluated in this test were formulated in a non-phytotoxic solvent mixture which included a surfactant and applied to plants that were grown for various periods of time before treatment (postemergence application). A mixture of sandy loam soil and greenhouse potting mix in a 60:40 ratio was used for the postemergence test.
(§3) Plantings of these crops and weed species were adjusted to produce plants of appropriate size for the postemergence test. All plant species were grown using normal greenhouse practices. Crop and weed species include arrowleaf sida (Sida rhombifolia), barnyardgrass (Echinochloa crus-galli), cocklebur (Xanthium strumarium), common ragweed (Ambrosia elatior), corn (Zea mays), cotton (Gossypium hirsutum), eastern black nightshade (Solanum ptycanthum), fall panicum (Panicum dichotomiflorum), field bindweed (Convolvulus arvensis), giant foxtail (Setaria faberii), hairy beggarticks (Bidens pilosa), ivyleaf morningglory (Ipomoea hederacea), johnsongrass (Sorghum halepense), ladysthumb smartweed (Polygonum persicaria), lambsquarters (Chenopodium album), large crabgrass (Digitaria sanguinalis), purple nutsedge (Cyperus rotundus), redroot pigweed (Amaranthus retroflexus), soybean (Glycine max), surinam grass (Brachiaria decumbens), velvetleaf (Abutilon theophrasti) and wild poinsettia (Euphorbia heterophylla).
(§4) Treated plants and untreated controls were maintained in a greenhouse for approximately 14, to 21 days, after which all treated plants were compared to untreated controls and visually evaluated. Plant response ratings, summarized in Table C, were based upon a 0 to 100 scale where 0 was no effect and 100 was complete control. A dash response (−) means no test result.

blackgrass = test: Test E blackgrass; assay type: in vivo, Alopecurus myosuroides; details: Postemergence
Experimental: as §2, with “in the 1- to 4-leaf stage” for “grown for various periods of time before treatment”
Plantings of these crops and weed species were adjusted to produce plants of appropriate size for the postemergence test. All plant species were grown using normal greenhouse practices. Crop and weed species include annual bluegrass (Poa annua), blackgrass (Alopecurus myosuroides), black nightshade (Solanum nigra), chickweed (Stellaria media), common poppy (Papaver rhoeas), deadnettle (Lamium amplexicaule), downy brome (Bromus tectorum), field violet (Viola arvensis), galium (Galium aparine), green foxtail (Setaria viridis), Italian ryegrass (Lolium multiflorum), jointed goatgrass (Aegilops cylindrica), kochia (Kochia scoparia), lambsquarters (Chenopodium album), littleseed canarygrass (Phalaris minor), rape (Brassica napus), redroot pigweed (Amaranthus retroflexus), Russian thistle (Salsola kali), scentless chamomile (Matricaria inodora), spring barley (Hordeum vulgare), sugar beet (Beta vulgaris), sunflower (Helianthus annuus), ivyleaf speedwell (Veronica hederaefolia), spring wheat (Triticum aestivum), winter wheat (Triticum aestivum), wild buckwheat (Polygonum convolvulus), wild mustard (Sinapis arvensis), wild oat (Avena fatua), windgrass (Apera spica-venti) and winter barley (Hordeum vulgare).
Treated plants and untreated controls were maintained in a greenhouse for approximately 21 to 28 days, after which all treated plants were compared to untreated controls and visually evaluated. […] A dash response (-) means no test result.

downy brome = test: Test E downy brome; assay type: in vivo, Bromus tectorum; details: Postemergence; for Plant response rating, Downy brome: 0 to 100 scale; for Plant response rating, Downy brortie: Rate 250 g/ha, 0 to 100 scale (0 no effect, 100 complete control)
Procedure, shortened: as §1

black nightshade = test: Test E black nightshade; assay type: in vivo, Solanum nigra; details: Postemergence
Procedure, shortened: as §1

surinam grass = test: Test C postemergence surinam grass; assay type: in vivo, Brachiaria decumbens; details: 0 to 100 scale, 0 no effect, 100 complete control
Experimental: as §2, §3, §4

hairy beggarticks = test: Test C postemergence hairy beggarticks; assay type: in vivo, Bidens pilosa; details: 0 to 100 scale, 0 no effect, 100 complete control
Experimental: as §2, §3, §4

barnyardgrass = test: Test C postemergence barnyardgrass; assay type: in vivo, Echinochloa crus-galli; details: 0 to 100 scale, 0 no effect, 100 complete control
Experimental: as §2, §3, §4

chickweed = test: Test E chickweed; assay type: in vivo, Stellaria media; details: Preemergence
field violet = test: Test E field violet; assay type: in vivo, Viola arvensis; details: Preemergence
jointed goatgrass = test: Test E jointed goatgrass; assay type: in vivo, Aegilops cylindrica; details: Preemergence
large crabgrass = test: Test C postemergence large crabgrass; assay type: in vivo, Digitaria sanguinalis; details: 0 to 100 scale, 0 no effect, 100 complete control
Experimental: as §2, §3, §4

purple nutsedge = test: Test C postemergence purple nutsedge; assay type: in vivo, Cyperus rotundus; details: 0 to 100 scale, 0 no effect, 100 complete control
Experimental: as §2, §3, §4

fall panicum = test: Test C postemergence fall panicum; assay type: in vivo, Panicum dichotomiflorum; details: 0 to 100 scale, 0 no effect, 100 complete control
Procedure, shortened: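 Visual injury scored 0-100 (100 = complete control) versus untreated plants roughly 14 to 21 days after treatment. Plants were grown to suitable size in 60:40 sandy loam and potting mix, then treated postemergence with surfactant-containing solvent formulations.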

[1] = Rate 125 g/ha, 0 to 100 scale (0 no effect, 100 complete control)
[2] = Rate 500 g/ha, 0 to 100 scale where 0 is no effect and 100 is complete control
[3] = Rate 250 g/ha, 0 to 100 scale (0 no effect, 100 complete control)
[4] = Rate 500 g/ha, 0 to 100 scale, 0 no effect, 100 complete control
[5] = Rate 62 g/ha, 0 to 100 scale, 0 no effect, 100 complete control

CCn1c(=O)on(C(=O)N(c2ccc(F)cc2F)C(C)C)c1=O [Compound 116]
Plant response rating, Galium (galium; [1]): 100
Plant response rating, Galium (galium; Rate 250 g/ha, 0 to 100 scale): 100
Plant response rating, Galium (galium; [2]): 100
Plant response rating, Sugar beet (sugar beet; Rate 62 g/ha, 0 to 100 scale): 0
Plant response rating, Sugar beet (sugar beet; Rate 125 g/ha, 0 to 100 scale): 0
Plant response rating, Sugar beet (sugar beet; [3]): 0
Plant response rating, Sugar beet (sugar beet; [4]): 0
Plant response rating, Wild buckwheat (wild buckwheat; Rate 62 g/ha, 0 to 100 scale): 0
Plant response rating, Wild buckwheat (wild buckwheat; Rate 125 g/ha, 0 to 100 scale): 0
Plant response rating, Wild buckwheat (wild buckwheat; [3]): 0
Plant response rating, Wild buckwheat (wild buckwheat; [4]): 0
Plant response rating, Deadnettle (deadnettle; [1]): 95
Plant response rating, Deadnettle (deadnettle; Rate 250 g/ha, 0 to 100 scale): 80
Plant response rating, Deadnettle (deadnettle; [2]): 80
Plant response rating Cotton (cotton; Rate 140 g/ha): 10
Plant response rating Cotton (cotton; Rate 280 g/ha): 50
Plant response rating Cotton (cotton; Rate 560 g/ha): 50
Plant response rating, Blackgrass (blackgrass; Rate 62 g/ha, 0 to 100 scale): 0
Plant response rating, Blackgrass (blackgrass; Rate 125 g/ha, 0 to 100 scale): 40
Plant response rating, Blackgrass (blackgrass; [3]): 80
Plant response rating, Blackgrass (blackgrass; [4]): 80
Plant response rating, Downy brome (downy brome; Rate 62 g/ha): 0
Plant response rating, Downy brome (downy brome; Rate 125 g/ha): 0
Plant response rating, Downy brortie (downy brome): 30
Plant response rating, Downy brome (downy brome; Rate 500 g/ha, 0 no effect, 100 complete control): 60
Plant response rating, Blk nightshade (black nightshade; Rate 62 g/ha, 0 to 100 scale): 10
Plant response rating, Blk nightshade (black nightshade; Rate 125 g/ha, 0 to 100 scale): 50
Plant response rating, Blk nightshade (black nightshade; [3]): 50
Plant response rating, Blk nightshade (black nightshade; [4]): 60
Plant response rating, Surinam grass (surinam grass; Rate 140 g/ha): 0
Plant response rating, Surinam grass (surinam grass; Rate 280 g/ha): 0
Plant response rating, Surinam grass (surinam grass; Rate 1120 g/ha): 90
Plant response rating H. beggarticks (hairy beggarticks; Rate 140 g/ha): 80
Plant response rating H. beggarticks (hairy beggarticks; Rate 560 g/ha): 90
Plant response rating, Barnyardgrass (barnyardgrass; Rate 140 g/ha): 55
Plant response rating, Barnyardgrass (barnyardgrass; Rate 280 g/ha): 85
Plant response rating, Barnyardgrass (barnyardgrass; Rate 560 g/ha): 90
Plant response rating, Barnyardgrass (barnyardgrass; Rate 1120 g/ha): 90
Plant response rating, Chickweed (chickweed; [1]): 100
Plant response rating, Chickweed (chickweed; Rate 250 g/ha, 0 to 100 scale): 100
Plant response rating, Chickweed (chickweed; [2]): 100
Plant response rating, Field violet (field violet; [1]): 50
Plant response rating, Field violet (field violet; Rate 250 g/ha, 0 to 100 scale): 40
Plant response rating, Field violet (field violet; [2]): 90
Plant response rating, Jointed goatgra (jointed goatgrass; [1]): 30
Plant response rating, Jointed goatgra (jointed goatgrass; Rate 250 g/ha, 0 to 100 scale): 100
Plant response rating, Jointed goatgra (jointed goatgrass; [2]): 65
Plant response rating Large crabgrass (large crabgrass; Rate 140 g/ha): 0
Plant response rating Large crabgrass (large crabgrass; Rate 280 g/ha): 0
Plant response rating Large crabgrass (large crabgrass; Rate 560 g/ha): 30
Plant response rating Large crabgrass (large crabgrass; Rate 1120 g/ha): 90
Plant response rating, Purple nutsedge (purple nutsedge; Rate 140 g/ha): 0
Plant response rating, Purple nutsedge (purple nutsedge; Rate 280 g/ha): 0
Plant response rating, Purple nutsedge (purple nutsedge; Rate 560 g/ha): 10
Plant response rating, Purple nutsedge (purple nutsedge; Rate 1120 g/ha): 10
Plant response rating Fall panicum (fall panicum; Rate 140 g/ha): 10
Plant response rating Fall panicum (fall panicum; Rate 280 g/ha): 60
Plant response rating Fall panicum (fall panicum; Rate 560 g/ha): 85
Plant response rating Fall panicum (fall panicum; Rate 1120 g/ha): 90

CCn1c(=O)on(C(=O)N(c2ccc(F)cc2)C(C)C)c1=O [Compound 107]
Plant response rating, Galium (galium; [5]): 50
Plant response rating, Galium (galium; [1]): 70
Plant response rating, Galium (galium; Rate 250 g/ha, 0 to 100 scale): 100
Plant response rating, Sugar beet (sugar beet; Rate 62 g/ha, 0 to 100 scale): 10
Plant response rating, Sugar beet (sugar beet; Rate 125 g/ha, 0 to 100 scale): 10
Plant response rating, Sugar beet (sugar beet; [3]): 40
Plant response rating, Wild buckwheat (wild buckwheat; Rate 62 g/ha, 0 to 100 scale): 0
Plant response rating, Wild buckwheat (wild buckwheat; Rate 125 g/ha, 0 to 100 scale): 0
Plant response rating, Wild buckwheat (wild buckwheat; [3]): 10
Plant response rating, Deadnettle (deadnettle; [5]): 50
Plant response rating, Deadnettle (deadnettle; [1]): 60
Plant response rating, Deadnettle (deadnettle; Rate 250 g/ha, 0 to 100 scale): 85
Plant response rating Cotton (cotton; Rate 140 g/ha): 45
Plant response rating Cotton (cotton; Rate 280 g/ha): 60
Plant response rating Cotton (cotton; Rate 560 g/ha): 80
Plant response rating Cotton (cotton; Rate 1120 g/ha): 90
Plant response rating, Blackgrass (blackgrass; Rate 62 g/ha, 0 to 100 scale): 5
Plant response rating, Blackgrass (blackgrass; Rate 125 g/ha, 0 to 100 scale): 80
Plant response rating, Blackgrass (blackgrass; [3]): 85
Plant response rating, Downy brome (downy brome; Rate 62 g/ha): 0
Plant response rating, Downy brome (downy brome; Rate 125 g/ha): 10
Plant response rating, Downy brortie (downy brome): 0
Plant response rating, Blk nightshade (black nightshade; Rate 62 g/ha, 0 to 100 scale): 10
Plant response rating, Blk nightshade (black nightshade; Rate 125 g/ha, 0 to 100 scale): 30
Plant response rating, Blk nightshade (black nightshade; [3]): 60
Plant response rating, Surinam grass (surinam grass; Rate 140 g/ha): 10
Plant response rating, Surinam grass (surinam grass; Rate 280 g/ha): 70
Plant response rating, Surinam grass (surinam grass; Rate 560 g/ha): 80
Plant response rating, Surinam grass (surinam grass; Rate 1120 g/ha): 95
Plant response rating H. beggarticks (hairy beggarticks; Rate 140 g/ha): 5
Plant response rating H. beggarticks (hairy beggarticks; Rate 280 g/ha): 60
Plant response rating H. beggarticks (hairy beggarticks; Rate 560 g/ha): 70
Plant response rating H. beggarticks (hairy beggarticks; Rate 1120 g/ha): 95
Plant response rating, Barnyardgrass (barnyardgrass; Rate 140 g/ha): 70
Plant response rating, Barnyardgrass (barnyardgrass; Rate 280 g/ha): 85
Plant response rating, Barnyardgrass (barnyardgrass; Rate 560 g/ha): 90
Plant response rating, Barnyardgrass (barnyardgrass; Rate 1120 g/ha): 95
Plant response rating, Chickweed (chickweed; [5]): 80
Plant response rating, Chickweed (chickweed; [1]): 50
Plant response rating, Chickweed (chickweed; Rate 250 g/ha, 0 to 100 scale): 50
Plant response rating, Field violet (field violet; [5]): 70
Plant response rating, Field violet (field violet; [1]): 30
Plant response rating, Field violet (field violet; Rate 250 g/ha, 0 to 100 scale): 20
Plant response rating, Jointed goatgra (jointed goatgrass; [5]): 40
Plant response rating, Jointed goatgra (jointed goatgrass; [1]): 50
Plant response rating, Jointed goatgra (jointed goatgrass; Rate 250 g/ha, 0 to 100 scale): 50
Plant response rating Large crabgrass (large crabgrass; Rate 140 g/ha): 70
Plant response rating Large crabgrass (large crabgrass; Rate 280 g/ha): 85
Plant response rating Large crabgrass (large crabgrass; Rate 560 g/ha): 95
Plant response rating Large crabgrass (large crabgrass; Rate 1120 g/ha): 95
Plant response rating, Purple nutsedge (purple nutsedge; Rate 140 g/ha): 0
Plant response rating, Purple nutsedge (purple nutsedge; Rate 280 g/ha): 0
Plant response rating, Purple nutsedge (purple nutsedge; Rate 560 g/ha): 10
Plant response rating, Purple nutsedge (purple nutsedge; Rate 1120 g/ha): 10
Plant response rating Fall panicum (fall panicum; Rate 140 g/ha): 50
Plant response rating Fall panicum (fall panicum; Rate 280 g/ha): 60
Plant response rating Fall panicum (fall panicum; Rate 560 g/ha): 85
Plant response rating Fall panicum (fall panicum; Rate 1120 g/ha): 85
